In ChEMBL document CHEMBL3045649, “Green approach towards synthesis of substituted pyrazole-1,4-dihydro,9-oxa,1,2,6,8-tetrazacyclopentano[b]naphthalene-5-one derivatives as antimycobacterial agents” (2013):
In brackets after ≈: the same amount, converted by molar mass.

Columns and labels:
Type in all cases: functional
[1] = test system: Mycobacterium tuberculosis; test: Antimycobacterial activity against Mycobacterium tuberculosis MTCC 300 assessed as growth inhibition at 1 mg/ml after 24 hr by agar well diffusion method; conditions: MTCC 300, 24 h, read-out: DIZ
Mycolicibacterium phlei [2] = test: Antimycobacterial activity against Mycobacterium phlei NCIM 2240 assessed as growth inhibition after 24 hr by agar well diffusion method; conditions: NCIM 2240, 24 h
Mycolicibacterium phlei [3] = test: Antimycobacterial activity against Mycobacterium phlei NCIM 2240 assessed as growth inhibition at 1 mg/ml after 24 hr by agar well diffusion method; conditions: NCIM 2240, 24 h, read-out: DIZ
Mycolicibacterium phlei [4] = test: Antimycobacterial activity against Mycobacterium phlei NCIM 2240 assessed as growth inhibition at 0.5 mg/ml after 24 hr by agar well diffusion method; conditions: NCIM 2240, 24 h, read-out: DIZ
Mycolicibacterium phlei [5] = test: Antimycobacterial activity against Mycobacterium phlei NCIM 2240 assessed as growth inhibition at 0.1 mg/ml after 24 hr by agar well diffusion method; conditions: NCIM 2240, 24 h, read-out: DIZ
[6] = test system: Mycolicibacterium smegmatis; test: Antimycobacterial activity against Mycobacterium smegmatis NCIM 5138 assessed as growth inhibition after 24 hr by agar well diffusion method; conditions: NCIM 5138, 24 h
[7] = test system: Mycolicibacterium smegmatis; test: Antimycobacterial activity against Mycobacterium smegmatis NCIM 5138 assessed as growth inhibition at 0.1 mg/ml after 24 hr by agar well diffusion method; conditions: NCIM 5138, 24 h, read-out: DIZ
[8] = test system: Mycolicibacterium smegmatis; test: Antimycobacterial activity against Mycobacterium smegmatis NCIM 5138 assessed as growth inhibition at 0.5 mg/ml after 24 hr by agar well diffusion method; conditions: NCIM 5138, 24 h, read-out: DIZ
[9] = test system: Mycolicibacterium smegmatis; test: Antimycobacterial activity against Mycobacterium smegmatis NCIM 5138 assessed as growth inhibition at 1 mg/ml after 24 hr by agar well diffusion method; conditions: NCIM 5138, 24 h, read-out: DIZ
[10] = test system: Mycobacterium tuberculosis; test: Antimycobacterial activity against Mycobacterium tuberculosis MTCC 300 assessed as growth inhibition after 24 hr by agar well diffusion method; conditions: MTCC 300, 24 h
[11] = test system: Mycobacterium tuberculosis; test: Antimycobacterial activity against Mycobacterium tuberculosis MTCC 300 assessed as growth inhibition at 0.5 mg/ml after 24 hr by agar well diffusion method; conditions: MTCC 300, 24 h, read-out: DIZ
[12] = test system: Mycobacterium tuberculosis; test: Antimycobacterial activity against Mycobacterium tuberculosis MTCC 300 assessed as growth inhibition at 0.1 mg/ml after 24 hr by agar well diffusion method; conditions: MTCC 300, 24 h, read-out: DIZ

## Cc1nn(-c2ccccc2)c2c1C(c1cn(-c3ccccc3)nc1-c1ccc(Cl)cc1)C1=C(NC(C)(c3ccc(O)c(Cl)c3O)NC1=O)O2 (stereo not given)
[1]
  zone of inhibition at 1000 µg/mL: 1.5 mm
Mycolicibacterium phlei [2]
  MIC: 90 µg/mL (≈ 130 µM)
Mycolicibacterium phlei [3]
  zone of inhibition at 1000 µg/mL: 6.5 mm
Mycolicibacterium phlei [4]
  zone of inhibition at 500 µg/mL: 4 mm
Mycolicibacterium phlei [5]
  zone of inhibition at 100 µg/mL: 2.5 mm
[6]
  MIC: 70 µg/mL (≈ 101 µM)
[7]
  zone of inhibition at 100 µg/mL: 3.8 mm
[8]
  zone of inhibition at 500 µg/mL: 5.2 mm
[9]
  zone of inhibition at 1000 µg/mL: 6.8 mm
[10]
  MIC: 1000 µg/mL (≈ 1450 µM)

## Cc1nn(-c2ccccc2)c2c1C(c1cn(-c3ccccc3)nc1-c1ccc(Cl)cc1)C1=C(NC(C)(c3cc(Cl)cc(I)c3O)NC1=O)O2 (stereo not given)
Mycolicibacterium phlei [2]
  MIC: 50 µg/mL (≈ 62.4 µM)
Mycolicibacterium phlei [3]
  zone of inhibition at 1000 µg/mL: 2.8 mm
Mycolicibacterium phlei [4]
  zone of inhibition at 500 µg/mL: 1.5 mm
[6]
  MIC: 70 µg/mL (≈ 87.3 µM)
[7]
  zone of inhibition at 100 µg/mL: 4.2 mm
[8]
  zone of inhibition at 500 µg/mL: 5 mm
[9]
  zone of inhibition at 1000 µg/mL: 5.4 mm

## Cc1nn(-c2ccccc2)c2c1C(c1cn(-c3ccccc3)nc1-c1ccc(F)cc1)C1=C(NC(C)(c3cc(Cl)ccc3O)NC1=O)O2 (stereo not given)
[6]
  MIC: 100 µg/mL (≈ 152 µM)
[7]
  zone of inhibition at 100 µg/mL: 1.9 mm
[8]
  zone of inhibition at 500 µg/mL: 2.2 mm
[9]
  zone of inhibition at 1000 µg/mL: 3.2 mm

## Cc1nn(-c2ccccc2)c2c1C(c1cn(-c3ccccc3)nc1-c1ccc(F)cc1)C1=C(NC(C)(c3ccc(O)cc3O)NC1=O)O2 (stereo not given)
Mycolicibacterium phlei [2]
  MIC: 50 µg/mL (≈ 78 µM)
Mycolicibacterium phlei [3]
  zone of inhibition at 1000 µg/mL: 2.2 mm
Mycolicibacterium phlei [4]
  zone of inhibition at 500 µg/mL: 1.5 mm
[6]
  MIC: 40 µg/mL (≈ 62.4 µM)
[7]
  zone of inhibition at 100 µg/mL: 4.1 mm
[8]
  zone of inhibition at 500 µg/mL: 5.5 mm
[9]
  zone of inhibition at 1000 µg/mL: 6.5 mm

## Cc1nn(-c2ccccc2)c2c1C(c1cn(-c3ccccc3)nc1-c1ccc(F)cc1)C1=C(NC(C)(c3ccc(O)c(Cl)c3O)NC1=O)O2 (stereo not given)
[1]
  zone of inhibition at 1000 µg/mL: 2 mm
Mycolicibacterium phlei [2]
  MIC: 50 µg/mL (≈ 74.1 µM)
Mycolicibacterium phlei [3]
  zone of inhibition at 1000 µg/mL: 2.5 mm
Mycolicibacterium phlei [4]
  zone of inhibition at 500 µg/mL: 1.5 mm
Mycolicibacterium phlei [5]
  zone of inhibition at 100 µg/mL: 3.4 mm
[6]
  MIC: 70 µg/mL (≈ 104 µM)
[7]
  zone of inhibition at 100 µg/mL: 4.5 mm
[8]
  zone of inhibition at 500 µg/mL: 7.6 mm
[9]
  zone of inhibition at 1000 µg/mL: 11.5 mm
[10]
  MIC: 1000 µg/mL (≈ 1480 µM)

## Cc1nn(-c2ccccc2)c2c1C(c1cn(-c3ccccc3)nc1-c1ccc(F)cc1)C1=C(NC(C)(c3cc(Cl)cc(I)c3O)NC1=O)O2 (stereo not given)
Mycolicibacterium phlei [2]
  MIC: 60 µg/mL (≈ 76.4 µM)
Mycolicibacterium phlei [3]
  zone of inhibition at 1000 µg/mL: 8.6 mm
Mycolicibacterium phlei [4]
  zone of inhibition at 500 µg/mL: 7.1 mm
Mycolicibacterium phlei [5]
  zone of inhibition at 100 µg/mL: 5.8 mm
[6]
  MIC: 60 µg/mL (≈ 76.4 µM)
[7]
  zone of inhibition at 100 µg/mL: 5.6 mm
[8]
  zone of inhibition at 500 µg/mL: 9 mm
[9]
  zone of inhibition at 1000 µg/mL: 12 mm

## COc1ccc(-c2nn(-c3ccccc3)cc2C2C3=C(NC(C)(c4cc(Cl)ccc4O)NC3=O)Oc3c2c(C)nn3-c2ccccc2)cc1 (stereo not given)
Mycolicibacterium phlei [2]
  MIC: 1000 µg/mL (≈ 1490 µM)
Mycolicibacterium phlei [3]
  zone of inhibition at 1000 µg/mL: 2 mm
[6]
  MIC: 90 µg/mL (≈ 134 µM)
[7]
  zone of inhibition at 100 µg/mL: 2.8 mm
[8]
  zone of inhibition at 500 µg/mL: 4.2 mm
[9]
  zone of inhibition at 1000 µg/mL: 5.2 mm

## COc1ccc(-c2nn(-c3ccccc3)cc2C2C3=C(NC(C)(c4cc(Cl)cc(I)c4O)NC3=O)Oc3c2c(C)nn3-c2ccccc2)cc1 (stereo not given)
[1]
  zone of inhibition at 1000 µg/mL: 3.6 mm
[11]
  zone of inhibition at 500 µg/mL: 2.5 mm
[12]
  zone of inhibition at 100 µg/mL: 2 mm
Mycolicibacterium phlei [2]
  MIC: 70 µg/mL (≈ 87.8 µM)
Mycolicibacterium phlei [3]
  zone of inhibition at 1000 µg/mL: 8.8 mm
Mycolicibacterium phlei [4]
  zone of inhibition at 500 µg/mL: 6.2 mm
Mycolicibacterium phlei [5]
  zone of inhibition at 100 µg/mL: 4 mm
[6]
  MIC: 50 µg/mL (≈ 62.7 µM)
[7]
  zone of inhibition at 100 µg/mL: 8 mm
[8]
  zone of inhibition at 500 µg/mL: 10.8 mm
[9]
  zone of inhibition at 1000 µg/mL: 12 mm
[10]
  MIC: 100 µg/mL (≈ 125 µM)

## Cc1nn(-c2ccccc2)c2c1C(c1cn(-c3ccccc3)nc1-c1ccc(Cl)cc1)C1=C(NC(C)(c3cc(Cl)ccc3O)NC1=O)O2 (stereo not given)
[1]
  zone of inhibition at 1000 µg/mL: 1.9 mm
Mycolicibacterium phlei [2]
  MIC: 100 µg/mL (≈ 148 µM)
Mycolicibacterium phlei [3]
  zone of inhibition at 1000 µg/mL: 3.5 mm
Mycolicibacterium phlei [4]
  zone of inhibition at 500 µg/mL: 2.4 mm
Mycolicibacterium phlei [5]
  zone of inhibition at 100 µg/mL: 2 mm
[6]
  MIC: 100 µg/mL (≈ 148 µM)
[7]
  zone of inhibition at 100 µg/mL: 1.5 mm
[8]
  zone of inhibition at 500 µg/mL: 2.3 mm
[9]
  zone of inhibition at 1000 µg/mL: 3.6 mm
[10]
  MIC: 1000 µg/mL (≈ 1480 µM)

## Cc1nn(-c2ccccc2)c2c1C(c1cn(-c3ccccc3)nc1-c1ccc(Cl)cc1)C1=C(NC(C)(c3ccc(O)cc3O)NC1=O)O2 (stereo not given)
Mycolicibacterium phlei [2]
  MIC: 70 µg/mL (≈ 107 µM)
Mycolicibacterium phlei [3]
  zone of inhibition at 1000 µg/mL: 4.5 mm
Mycolicibacterium phlei [4]
  zone of inhibition at 500 µg/mL: 3.8 mm
Mycolicibacterium phlei [5]
  zone of inhibition at 100 µg/mL: 2.5 mm
[6]
  MIC: 100 µg/mL (≈ 152 µM)
[7]
  zone of inhibition at 100 µg/mL: 1.6 mm
[8]
  zone of inhibition at 500 µg/mL: 1.9 mm
[9]
  zone of inhibition at 1000 µg/mL: 3.2 mm

## CO[C@H]1/C=C/O[C@@]2(C)Oc3c(C)c(O)c4c(O)c(c(/C=N/N5CCN(C)CC5)c(O)c4c3C2=O)NC(=O)/C(C)=C\C=C\[C@H](C)[C@H](O)[C@@H](C)[C@@H](O)[C@@H](C)[C@H](OC(C)=O)[C@@H]1C [RIFAMPIN]
Mycolicibacterium phlei [2]
  MIC: 40 µg/mL (≈ 48.6 µM)
[6]
  MIC: 480 µg/mL (≈ 583 µM)
[10]
  MIC: 280 µg/mL (≈ 340 µM)
